Results from PMC4122966, “Novel VCP modulators mitigate major pathologies of rd10, a mouse model of retinitis pigmentosa” (Scientific Reports, 2014).

Experiments:
retinal neuronal cells = assay: retinal organ culture with NMDA insult; type: cell-based, mouse; conditions: 200 µM NMDA, 50 µM KUS121, 4 days
Procedure: Supplementary Figure Legends
Supplementary Figure 1 Inhibitory effects of KUS121, KUS187, and DBeQ on the ATPase activity of recombinant VCP purified from E. coli.
Supplementary Figure 2 (a) HeLa cells were cultured in medium with low glucose (0.25 g/l) for 20 hours, with or without KUSs, and ATP levels were measured with luciferase assays. *** P < 0.005 vs. DMSO control (Dunnett’s test, n=3). HG: medium with 4.5 g/l glucose. Error bars indicate SD. (b) HeLa cells were cultured in medium with low glucose (0.2 g/l) for 20 hours, with DMSO or KUSs, and ATP and ADP levels were measured by HPLC. The respective ratios of ATP/ADP are shown. * P < 0.05, ** P < 0.01 vs. DMSO control (Dunnett’s test, n=3). Error bars indicate SD. (c) HeLa cells were cultured in medium without glucose for 6 hours, with (50 µM each KUS, as indicated) or without KUSs, and acetyl-CoA levels were measured by HPLC.
Supplementary Figure 3 Immunohistochemical analyses of retinal neuronal cells.
Retinal sections of 5-month-old C57BL/6 mice were stained with (b) or without (a) an anti-VCP antibody12, developed with diaminobenzidine and counter-stained with hematoxylin (a, b). Note that all retinal neuronal cells highly expressed VCP. GCL: ganglion cell layer, IPL: inner plexiform layer, INL: inner nuclear layer, OPL: outer plexiform layer, ONL: outer nuclear layer, IS: inner segment, OS: outer segment.
Retinas from adult C57BL/6 mice were cultured on porous membrane with 200 µM of NMDA with or without KUS121 (50 µM) for 4 days. (a) HE-stained retinal sections.
In the retina cultured with KUS121, the inner nuclear layer (INL), inner plexiform layer (IPL), ganglion cell layer (GCL), and retinal nerve fiber layer (RNFL) were thicker than that of the retina without KUS121. (b) TUNEL staining of the retinal […]
Supplementary Figure 5 (a) Cross sectional (vertical) images obtained by spectral-domain optical coherence tomography (SD-OCT) in 21-day-old C57BL/6 wild-type (WT) and rd10 mice with or without KUSs. […] (c) The mean amplitude of the a-wave (measured at 25 msec), which is derived from photoreceptors, in KUS-treated […]

HeLa cells = assay: protection from cell death in low glucose medium (WST); type: cell-based; conditions: low glucose 0.2 g/l, 5, 10, 20, and 50 μM, 41 hours
Procedure: Figure 2 Prevention of cell death and ER stress by KUSs. (a) Photographs of HeLa cells, cultured with DMSO (DMSO) or KUSs (KUS94, KUS121, and KUS187, 20 μM each) for 41 hours in low glucose (0.2 g/l) medium. Scale bar, 100 μm. (b–e) WST (water-soluble tetrazolium salts) values reflecting relative live cell numbers are shown, as optical density (OD) at 450 nm. Error bars indicate SD. (b) WST values of HeLa cells, cultured in low glucose (0.2 g/l) with DMSO (control) or KUSs (50 μM for KUS121; 20 μM for KUS69, KUS94, and KUS187, n = 3) for 41 hours. (c) Cell viability, indicated by WST values of HeLa cells, cultured with tunicamycin (Tm) (0.2 μg/ml) for 41 hours with KUSs (20 μM each, n = 3). […]
HeLa, HEK293, and PC12 cells were cultured in Dulbecco's modified Eagle's medium (DMEM) with 10% fetal bovine serum. […] Viability of cultured cells was measured by formazan production with an ARVO multilabel counter (Wallac), using WST (water soluble tetrazolium salts)-8 reagent (Cell count reagent SF, Nacalai Tesque, Kyoto, Japan). ATP in cultured cells was measured by luciferase activities with an ARVO multilabel counter, using ATP assay reagent for cells (Toyo B-net, Tokyo, Japan). Acetyl-CoA was measured using a PicoProbe Acetyl CoA assay kit (BioVision, CA, USA) with a Spectra Max multilabel counter (Molecular Devices, CA, USA).

Cc1cc(F)ccc1-c1ccc(/N=N/c2cc(S(=O)(=O)O)c3ccccc3c2N)cn1 [KUS121]
TUNEL-positive apoptotic cells (retinal neuronal cells): More TUNEL-positive apoptotic cells (green) were observed in the retina
thickness of INL, IPL, GCL and RNFL (HE-stained sections) (retinal neuronal cells; vs retina without KUS121): thicker
protection of retinal neuronal cells from NMDA insult (retinal neuronal cells; retinas from adult C57BL/6 mice): protects retinal neuronal cells from NMDA insult
dose dependence of protective effect (HeLa cells): dose-dependent
